Test results published in ChEMBL document CHEMBL1133816, “Potent second generation vinyl sulfonamide inhibitors of the trypanosomal cysteine protease cruzain” (2001).

How the values were obtained:
[1] = biological target: Cruzipain (Trypanosoma cruzi) (UniProt P25779); assay: Second order rate constant for inactivation of cruzain of Trypanosoma cruzi
Trypanosoma cruzi [2] = assay: Effect on survival time of against […] macrophages infected with Trypanosoma cruzi trypomastigotes at a concentration of 10 uM; format: functional
Trypanosoma cruzi [3] = assay: Effect on survival time of against […] macrophages infected with Trypanosoma cruzi trypomastigotes at a concentration of 30 uM; format: functional, organism-based

Cruzipain (Trypanosoma cruzi), sequence (P25779 123-467 limits assumed): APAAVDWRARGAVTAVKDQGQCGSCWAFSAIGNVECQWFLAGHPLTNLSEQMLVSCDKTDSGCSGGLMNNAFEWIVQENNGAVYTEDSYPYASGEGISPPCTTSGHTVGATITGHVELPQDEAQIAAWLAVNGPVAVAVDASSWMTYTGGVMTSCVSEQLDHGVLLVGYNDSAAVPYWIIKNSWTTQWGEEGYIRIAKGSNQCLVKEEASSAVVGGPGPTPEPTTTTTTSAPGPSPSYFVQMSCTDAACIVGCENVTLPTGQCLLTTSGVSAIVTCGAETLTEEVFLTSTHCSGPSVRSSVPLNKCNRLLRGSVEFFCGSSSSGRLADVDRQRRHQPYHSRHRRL

Compound	K ass [1] [M⁻¹ s⁻¹]	Survival time (Trypanosoma cruzi [2])	Survival time (Trypanosoma cruzi [3])
O=C(N[C@@H](Cc1ccccc1)C(=O)N[C@H](/C=C/S(=O)(=O)Nc1ccccc1)CCc1ccccc1)OCc1ccccc1	242000	6 days	
O=C(N[C@H](/C=C/S(=O)(=O)c1ccccc1)CCc1ccccc1)[C@H](Cc1ccccc1)NC(=O)N1CCOCC1	181000	>24 days	
CN1CCN(C(=O)N[C@@H](Cc2ccccc2)C(=O)N[C@H](/C=C/S(=O)(=O)NOCc2ccccc2)CCc2ccccc2)CC1	6.48e+06	>24 days	
O=C(N[C@@H](Cc1ccccc1)C(=O)N[C@H](/C=C/S(=O)(=O)Oc1ccccc1)CCc1ccccc1)OCc1ccccc1	1.68e+07		Toxic
CN1CCN(C(=O)N[C@@H](Cc2ccccc2)C(=O)N[C@H](/C=C/S(=O)(=O)Oc2ccccc2)CCc2ccccc2)CC1	720000	9 days	
O=C(N[C@@H](Cc1ccccc1)C(=O)N[C@H](/C=C/S(=O)(=O)Cc1ccccc1)CCc1ccccc1)OCc1ccccc1	1.4e+06	6 days	
O=C(N[C@H](/C=C/S(=O)(=O)Cc1ccccc1)CCc1ccccc1)[C@H](Cc1ccccc1)NC(=O)N1CCOCC1	1.67e+06	20 days	
CN1CCN(C(=O)N[C@@H](Cc2ccccc2)C(=O)N[C@H](/C=C/S(=O)(=O)c2ccccc2)CCc2ccccc2)CC1 [K-777]	420000	>24 days	
O=C(N[C@H](/C=C/S(=O)(=O)NOCc1ccccc1)CCc1ccccc1)[C@H](Cc1ccccc1)NC(=O)N1CCOCC1	2.27e+06	>24 days	
CN1CCN(C(=O)N[C@@H](Cc2ccccc2)C(=O)N[C@H](/C=C/S(=O)(=O)Cc2ccccc2)CCc2ccccc2)CC1	3.85e+06	13 days	
O=C(N[C@H](/C=C/S(=O)(=O)Nc1ccccc1)CCc1ccccc1)[C@H](Cc1ccccc1)NC(=O)N1CCOCC1	4.92e+06	9 days	
O=C(N[C@H](/C=C/S(=O)(=O)Oc1ccccc1)CCc1ccccc1)[C@H](Cc1ccccc1)NC(=O)N1CCOCC1	1.02e+07	Toxic	
CN1CCN(C(=O)N[C@@H](Cc2ccccc2)C(=O)N[C@H](/C=C/S(=O)(=O)Nc2ccccc2)CCc2ccccc2)CC1	1.26e+06	9 days	
